Several values for one entry are separate records, joined by “and”; a condition that tells them apart may be missing. Equal values may be shown once.
Assays:
[1] = Metabolite profile in plasma, liver and HT29 tumor after i.p. SN30000; assay type: in vivo, NIH-III mice; conditions: SN30000 186 mg/kg i.p.; for Metabolite/SN30000 peak area, Tumor: HT29 tumor
Experimental: Mouse plasma and tissue homogenates, prepared from tissue samples in two volumes of ice-cold PBS using a TissueLyser II (Qiagen Sciences, Germantown, MD, United States) with 30 Hz oscillation frequency for 1 min, were processed by precipitating proteins with 3 vol MeOH and centrifuging (13,000 g, 4°C for 10 min). Supernatants were diluted into 3 vol water and analyzed with an Agilent model 6460 LC-MS/MS with an in-line photodiode array absorbance detector. Chromatographic separation was performed on a Zorbax Eclipse C18 column (100 mm × 3.0 mm, 1.8 μm; Agilent Technologies) at 35°C with a flow rate of 0.6 mL/min, with positive or negative mode electrospray ionization. The mobile phase was a gradient constructed using 80% MeCN/20% water/0.1% formic acid v/v/v (A) and 0.1% formic acid in water (B) from 10% A to 80% A with a total run time of […]. The gradient profile was: 0–4 min, 10% A; 4–11 min linear increase to 60% A; 11–12 min to 80% A; held for 1 min, returned to 10% A over 0.5 min and held for 2 min before the next sample injection. Absorbance spectra were collected from 230 to 600 nm with a reference wavelength of 550 nm. The mass/charge (m/z) ratio was scanned from 100 to 800 with a fragmentor voltage of 120 V. MS^2 with various collision energies was used for further characterization of some metabolites.
Metabolites were investigated in plasma, liver and HT29 tumors following i.p. dosing of female NIH-III mice with SN30000 at 186 mg/kg, which represents its previously determined MTD for this route and mouse strain ([Gu et al., 2014]). Representative chromatograms are shown in Supplementary Figure 1. A total of 19 metabolites (M1–M19) were provisionally identified (Figure 1 and Table 1). Assignments were confirmed by comparison with synthetic standards in the case of the 1-oxide M14 and nor-oxide M13, which have previously been reported as murine metabolites of SN30000 ([Wang et al., 2012]) and for M15 which is known to be the major photodegradation product of SN30000 ([Gu et al., 2014]). In addition, the previously unreported metabolite M18, which is the main plasma metabolite at late times, was isolated from pooled plasma of mice dosed with M14 in sufficient quantity for characterization by NMR (Supplementary Data). This identified M18 as an oxidation product of M14 with an alkanoic acid side-chain (Figure 1), an assignment that was confirmed by synthesis of the authentic compound which was identical by HPLC retention time, absorbance spectrum, elemental analysis, mass spectrum and NMR spectroscopy.

[2] = target: T1, mouse brain acetylcholinesterase (Mus musculus, UniProt P21836); test: biochemical; conditions: for IC50: mouse brain homogenate, 37°C
T1 construct: from tissue; host or cells: mouse brain homogenate
T1 sequence (P21836 32-614): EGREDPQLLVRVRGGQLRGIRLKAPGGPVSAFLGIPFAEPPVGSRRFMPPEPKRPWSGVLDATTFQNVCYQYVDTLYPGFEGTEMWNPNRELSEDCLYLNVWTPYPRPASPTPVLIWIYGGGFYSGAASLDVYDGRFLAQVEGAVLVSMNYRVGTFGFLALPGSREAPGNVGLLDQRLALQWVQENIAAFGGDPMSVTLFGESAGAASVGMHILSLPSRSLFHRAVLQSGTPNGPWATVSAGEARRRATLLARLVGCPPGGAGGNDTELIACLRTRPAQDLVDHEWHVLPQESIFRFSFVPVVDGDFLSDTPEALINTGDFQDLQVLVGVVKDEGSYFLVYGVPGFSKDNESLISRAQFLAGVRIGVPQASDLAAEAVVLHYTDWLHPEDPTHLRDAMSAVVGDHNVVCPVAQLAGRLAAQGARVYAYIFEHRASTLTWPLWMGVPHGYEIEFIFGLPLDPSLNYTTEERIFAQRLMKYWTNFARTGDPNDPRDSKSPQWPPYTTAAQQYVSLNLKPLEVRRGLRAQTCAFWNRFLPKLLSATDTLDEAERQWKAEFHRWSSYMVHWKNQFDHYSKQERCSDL
Experimental: TABLE 10: Inhibition of mouse brain acetylcholinesterase activitya by SN30000 and related compounds […]
aThe acetylcholinesterase inhibition assay is based on Obregon et al., 2005. Mouse brain homogenate was prepared in potassium phosphate buffer (100 mM, pH 7.4), which was pre-incubated with dithiobisnitrobenzoate (final concentration 1 mM) at 37°C for 10 min. After adding acetylthiocholine (final concentration 0.6 mM), the formation of 5-thio-2-nitrobenzoate was measured by monitoring absorbance (Spectramax- M2 spectrophotometer) at 412 nm every 30 s for 10 min. Negative controls (DMSO or saline) and positive control […]
IC50 values are based on 3-4 deter minations per compound.

NIH-III mice = test: Core body (rectal) temperature and acute clinical signs after dosing; assay type: in vivo; conditions: for Initial rate of temperature loss (rectum): i.p. SN30000 186 mg/kg, TPZ 31.7 mg/kg, M14 135 mg/kg
Experimental: Supplementary Figure 3. Initial rates of core temperature decrease in (untreated) NIH-III mice post- mortem: co mparison with initial temperature change ante- mortem following treatment with benzotriazine oxides at their MTD. Temperature was measured in rectu m and liver over 15 min. Initial rates of temperature loss (°C/min) were: post- mortem (rectum):
(rectum) 0.33. The rectal temperature loss following dosing with M14 (135 mg/kg) was 0.6 °C/min (not shown for clarity). The drug-induced changes are redrawn from Fig. 4.

[3] = Compartmental plasma PK model; assay type: in vivo; parameters: Absorption rate constant Ka: unit not given here; conditions: for Central compartment volume V1: 1-Oxide and Nor-oxide values fixed; for Absorption rate constant Ka: i.p. dosing compartment, SN30000 value fixed
Text: This model, shown schematically in Figure 9, is based on total (free + bound) plasma concentrations; the major metabolites (M14, M13, and M18) are explicit and clearance of SN30000 occurs only by reduction to M14. The i.p. bioavailability of SN30000 was modeled with an additional term for loss from the peritoneal compartment (kloss).

in vivo = conditions: NIH-III nude, mouse
Experimental: SN30000, M14 and M18 dosing solutions were prepared fresh in normal saline, filtered through 0.45 μm Acrodisc filters (Pall Life Sciences, Port Washington, NY, United States), protected from light in amber vials, and used within 3 h. Doses are expressed as mg of free base equivalent for SN30000 and M14, and free acid in the case of M18. […] Blood samples were collected from mice at various times by cardiac puncture, seconds after cervical dislocation, into ice-cold tubes containing K2EDTA. These were placed on ice immediately after collection and centrifuged (3,000 g, 3 min) within 10 min to harvest plasma. Plasma and tissues were rapidly frozen in liquid nitrogen before storage at -80°C for subsequent bioanalysis.
M18 was quantified by absorbance detection with reference to an external standard calibration curve.
Concentration-time data were analyzed by non-compartmental analysis using Phoenix WinNonlin (ver 6.4, Build 6.4.0768 Pharsight, United States); all AUC values were extrapolated to infinity using the linear trapezoidal rule. […] Model fits were further assessed by visual inspection of the residuals and predicted PK.

[4] = Plasma, liver and brain PK after i.p. dosing with M14; assay type: in vivo; conditions: i.p. M14 135 mg/kg; for half-life: read-out: Terminal T1/2
Experimental: Concentration-time data were analyzed by non-compartmental analysis using Phoenix WinNonlin (ver 6.4, Build 6.4.0768 Pharsight, United States); all AUC values were extrapolated to infinity using the linear trapezoidal rule. A compartmental model for plasma PK after dosing with SN30000 or M14 was fitted using Phoenix NLME v1.3 with random effects on the metabolite volumes of distribution, and temperature effects based on the observed body temperature at the last measurement time. Temperature effects were added or removed until there was no significant change in the log likelihood. Model fits were further assessed by visual inspection of the residuals and predicted PK.

[5] = NIH-III, mouse, in vivo, model clearance of the compound, read-out: CL (converted)
[6] = NIH-III nude, mouse, in vivo, ip, 135 mg/kg, liver
[7] = NIH-III nude, mouse, in vivo, ip, 135 mg/kg, plasma, read-out: Cmax
[8] = NIH-III nude, mouse, in vivo, ip, 135 mg/kg, plasma

## [O-][n+]1nc(CCCN2CCOCC2)[n+]([O-])c2cc3c(cc21)CCC3 [SN30000, 3-(3-Morpholinopropyl)-7,8-dihydro-6H-indeno[5,6-e][1,2,4]triazine 1,4-dioxide]
[1]
  Metabolite/SN30000 peak area, Tumor: 1.00
  Metabolite/SN30000 peak area, Liver: 1.00
  Metabolite/SN30000 peak area, Plasma: 1.00
[2]
  IC50: 131 µM
NIH-III mice; i.p. MTD dose (186 mg/kg)
  Drop in rectal temperature at nadir, below controls: ~8 °C
  Time of temperature nadir: approximately 30 min
NIH-III mice
  Initial rate of temperature loss (rectum): 0.52 °C/min
[3]
  Central compartment volume V1: 1.95 L/kg
  Absorption rate constant Ka: 60
[3]; (1+ΔT)^-N
  Temperature effect (N) on Kloss for i.p. SN30000: 2.80
[3]; NIH-III, mouse, in vivo
  Intercompartmental clearance Clic: 18.7 mL/min/kg
  Peripheral compartment volume V2: 0.64 L/kg
[3]; NIH-III, mouse, in vivo, ip
  Approximate % suppression per °C of Kloss for i.p. SN30000: ~86%
[3]; NIH-III, mouse, in vivo, model clearance
  clearance: 189 mL/min/kg
[3]; loss from peritoneal compartment
  Kloss for i.p. SN30000: 67.48 L/h
In vivo; in vivo, 78 mg/kg
  clearance: 84 mL/min/kg
In vivo; in vivo, iv
  clearance: 83.3 to 167 mL/min/kg
In vivo; in vivo, iv, 1.86 mg/kg
  AUC: 0.53 µM·h
  Cmax: 1.86 ± 0.13 µM
  Vd: 1.52 L/kg
  clearance: 177 mL/min/kg
  half-life: 8.03 min
In vivo; in vivo, iv, 18.6 mg/kg
  AUC: 8.1 µM·h
  Cmax: 25.2 ± 0.27 µM
  Vd: 1.29 L/kg
  clearance: 116 mL/min/kg
  half-life: 27.6 min
In vivo; in vivo, iv, 78.3 mg/kg
  AUC: 47 µM·h
  Cmax: 81.9 ± 2.71 µM
  Vd: 2.24 L/kg
  clearance: 84 mL/min/kg
  half-life: 23.9 min

## [O-][n+]1nc(CCCN2CCOCC2)nc2cc3c(cc21)CCC3 [M14]
[1]
  Metabolite/SN30000 peak area, Tumor: 0.41
  Metabolite/SN30000 peak area, Liver: 5.18
  Metabolite/SN30000 peak area, Plasma: 0.35
[2]
  IC50: 58.3 µM and 58 µM
NIH-III mice
  Initial rate of temperature loss (rectum): 0.6 °C/min
[3]
  Central compartment volume V1: 2.2 L/kg
  Absorption rate constant Ka: 4.43
[3]; (1+ΔT)^-N
  Temperature effect (N) on V1: 0.48
[3]; NIH-III, mouse, in vivo
  Approximate % suppression per °C of CL: ~82%
  Approximate % suppression per °C of V1: ~28%
  Intercompartmental clearance Clic: 77.3 mL/min/kg
  Peripheral compartment volume V2: 3.51 L/kg
[3]; [5]
  clearance: 1020 mL/min/kg
In vivo; in vivo, iv, 1.86 mg/kg
  AUC: 0.042 µM·h
  half-life: 12.3 min
In vivo; in vivo, iv, 18.6 mg/kg
  AUC: 0.6 µM·h
  half-life: 28.5 min
In vivo; in vivo, iv, 78.3 mg/kg
  AUC: 11.6 µM·h
  half-life: 31.5 min
[4]; NIH-III nude, mouse, in vivo, ip, 135 mg/kg, brain, read-out: Cmax
  Cmax: 260 ± 29 µM
[4]; NIH-III nude, mouse, in vivo, ip, 135 mg/kg, brain
  half-life: 20.1 min
[4]; NIH-III nude, mouse, in vivo, ip, 135 mg/kg, liver, read-out: Cmax
  Cmax: 319 ± 46.1 µM
[4]; [6]
  half-life: 25.1 min
[4]; [7]
  Cmax: 95.6 ± 9.8 µM
[4]; [8]
  half-life: 30.8 min
[4]; brain
  AUC: 108.3 µmol·h/kg
[4]; liver
  AUC: 131.1 µmol·h/kg
[4]; plasma
  AUC: 36.6 µmol·h/kg

## O=C(O)CCc1nc2cc3c(cc2[n+]([O-])n1)CCC3 [M18]
[1]
  Metabolite/SN30000 peak area, Tumor: 1.63
  Metabolite/SN30000 peak area, Liver: 0.60
  Metabolite/SN30000 peak area, Plasma: 1.14
[2]; mouse brain acetylcholinesterase, 300 μM
  Inhibition at 300 μM: no inhibition
[2]
  IC50: > 300 µM
NIH-III mice; 36 mg/kg
  Body weight loss: no body weight loss was observed
NIH-III mice; 36 mg/kg i.p. or i.v.
  Acute clinical signs and hypothermic response: no acute clinical signs or hypothermic response were observed
[3]
  Central compartment volume V1: 0.43 L/kg
[3]; [5]
  clearance: 3.83 mL/min/kg
In vivo; in vivo, iv, 1.86 mg/kg
  AUC: 0.77 µM·h
In vivo; in vivo, iv, 18.6 mg/kg
  AUC: 10.1 µM·h
  half-life: 101 min
In vivo; in vivo, iv, 78.3 mg/kg
  AUC: 60.9 µM·h
  half-life: 75 min
[4]; [6]
  half-life: 144 min
[4]; [7]
  Cmax: 144 ± 5.3 µM
[4]; [8]
  half-life: 182 min
[4]
  Detection in brain: undetectable in brain
[4]; liver
  AUC: 93.3 µmol·h/kg
  Cmax: 40.0 ± 3.0 µmol/kg
[4]; plasma
  AUC: 349 µmol·h/kg

## c1c2c(cc3nc(CCCN4CCOCC4)nnc13)CCC2 [M13]
[1]
  Metabolite/SN30000 peak area, Tumor: 0.11
  Metabolite/SN30000 peak area, Liver: 1.50
  Metabolite/SN30000 peak area, Plasma: 0.08
[3]
  Central compartment volume V1: 2.2 L/kg
[3]; NIH-III, mouse, plasma, other: i.p. and i.v. datasets fitted simultaneously, model clearance of the compound, read-out: CL (converted)
  clearance: 1280 mL/min/kg
[3]; NIH-III, mouse, plasma, other: i.p. and i.v. datasets fitted simultaneously, read-out: Steady state volume VSS
  Vd: 11.6 L/kg
[3]; mouse, in vivo
  Approximate % suppression per °C of CL: ~23%
  Peripheral compartment volume V2: 9.38 L/kg
In vivo; plasma, iv, 1.86 mg/kg
  AUC: 0.0047 µM·h
  half-life: 27.7 min
In vivo; plasma, iv, 18.6 mg/kg
  AUC: 0.146 µM·h
  half-life: 47.1 min
In vivo; plasma, iv, 78.3 mg/kg
  AUC: 3.34 µM·h
  half-life: 38.9 min
[4]; NIH-III nude, mouse, ip, brain
  half-life: 26 min
[4]; NIH-III nude, mouse, ip, liver
  half-life: 32.7 min
[4]; NIH-III nude, mouse, ip, plasma, read-out: Cmax
  Cmax: 4 ± 0.63 µM
[4]; NIH-III nude, mouse, ip, plasma
  half-life: 40 min
[4]; brain
  AUC: 5.3 µmol·h/kg
  Cmax: 11.0 ± 1.6 µmol/kg
[4]; liver
  AUC: 14.9 µmol·h/kg
  Cmax: 34.1 ± 5.4 µmol/kg
[4]; plasma
  AUC: 1.79 µmol·h/kg
